Experimental data reported in patent US11407781B2, “Equatorially modified polymer linked multimers of guanosine-3′, 5′-cyclic monophosphates” (GRAYBUG VISION, INC., priority 2016, dated 2022).
Marks after values point to notes of the source that are not given here.

Assays:
[1] = Determination of lipophilicity by RP-18 HPLC retention (log k′g); assay type: physicochemical; settings: RP-18 reversed phase HPLC, gradient elution, ion pair chromatography with triethylammonium cation
From the text: Lipophilicity information is thus often only obtained by fragment analysis and corresponding calculations.
An established HPLC method, which is based on retention data on RP-18 reversed phase silica during gradient elution, was used for the determination of lipohilicity.
Instead of log P the method yields the descriptor log k′g, ranking analytes according to their lipophilicity on a logarithmic scale as well. Since charged molecules such as cyclic nucleotides have only hardly any retention on reversed phases, ion pair chromatography with the lipophilic triethylammonium cation is used.

[2] = test system: primary rod-like cells derived from the rd1 mutant mouse; assay: Primary rod-like cells: cell death by Ethidium Homodimer assay; settings: compared to Rp-8-Br-cGMPS and Rp-8-Br-PET-cGMPS; 0.1 μM and 1 μM, 24 hours (FIG. 2)
Procedure: Legend: Primary rod-like cells derived from the rd1 mutant mouse undergo spontaneous cell death 11 days after differentiation. Rod-like cells were exposed to compounds at day 10 of culture and analyzed 24 hours later. A.: 0.1 μM concentration of tested compounds. B.: 1 μM concentration of tested compounds. Percentage of dying cells was evaluated by Ethidium Homodimer assay. Untreated cells are shown as control sample (black bar). Reference compounds Rp-8-Br-cGMPS and Rp-8-Br-PET-cGMPS are shown as dashed bars. Data are shown as means±SD from at least three biological replicates.
Primary rod-like cells were obtained by isolating stem cells from the ciliary epithelium of murine eyes.^15 The cells are cultured until they form neurospheres in DMEM/F12 with FGF (20 ng/ml), Heparin (2 μg/ml), N2 (1x), Glucose (0.6%), HEPES (5 μM) and 1% Penicillin/Streptomycin. Single neurospheres are picked and plated onto glass slides coated with ECM in the same medium as before with the exception of reduced FGF concentration (10 ng/ml) to induce adhesion. […] To assess cell death, microphotographs were taken from three different slides for each compound concentration and the total number of cells, as well as the number of dying Ethidium Homodimer positive cells, were counted in each picture. […]

[3] = test system: photoreceptors of rd1 explants; assay: Retinal explants: photoreceptor cell death by TUNEL stain; assay type: cell-based, mouse; settings: 50 μM
Procedure: Legend: The animals at the age of postnatal day 5 (PN5) were killed by decapitation and retinas were dissected out with retinal pigment epithelium attached as described previously.^9 The retinas were flattened out on the membranes of commercially available 6-well culture inserts, after which 1.5 ml of a custom made culturing medium was added to each well. These explants were then kept in culture for two days without any treatment after which the test analogue of the invention at the desired concentration was added at a medium change at PN7 (“7” in Figure). There was then a new medium change at PN9 (“9” in Figure), with same concentration of analogue of the invention, upon which the cultures were kept until PN11 (“11” in Figure). At this time point the experiment was finished by a fixation procedure. This paradigm is therefore called PN5+2+4. […]
Legend: Effects of selected analogues at given concentrations of the invention on the cell death of photoreceptors of rd1 explants. The cell death was assessed by so called TUNEL stain on fixated and sectioned material, after which the number of dying cells was counted and analysed, and compared with that from untreated rd1 explants. In order to allow more direct comparisons between the different analogues and concentrations a ratio of treated/untreated specimens was calculated. […]

SMILES | log k′g [1] | other results
Cc1ccc(-c2cn3c(=O)c4nc(Br)n([C@@H]5O[C@@H]6COP(O)(=S)O[C@H]6[C@H]5O)c4nc3[nH]2)cc1 (single isomer, unassigned) [Compound 22, 8-Bromo-(4-methyl-β-phenyl-1,N^2-etheno)guanosine-3′,5′-cyclic monophosphorothioate, Rp-isomer] | 3.134 | –
Nc1nc2c(nc(SCC(=O)Nc3ccccc3)n2[C@@H]2O[C@@H]3COP(O)(=S)O[C@H]3[C@H]2O)c(=O)[nH]1 (single isomer, unassigned) [Compound 31, 8-Phenylamidomethylthioguanosine-3′,5′-cyclic monophosphorothioate, Rp-isomer] | 2.105 | –
O=C(CSc1nc2c(=O)n3cc(-c4ccccc4)[nH]c3nc2n1[C@@H]1O[C@@H]2COP(O)(=S)O[C@H]2[C@H]1O)NCCOCCOCCOCCOCCOCCOCCOCCOCCNC(=O)CSc1nc2c(=O)n3cc(-c4ccccc4)[nH]c3nc2n1[C@@H]1O[C@@H]2COP(O)(=S)O[C@H]2[C@H]1O (stereo partly drawn) [Compound 2, β-Phenyl-1,N^2-ethenoguanosine-3′,5′-cyclic monophosphorothioate[Rp]-[8-thiomethylamido-(octaethoxy)-ethylamidomethylthio-8]-β-phenyl-1,N^2-ethenoguanosine-3′,5′-cyclic monophosphorothioate[Rp]] | 3.236* | protective effect against cell death in primary rod-like cells [2]: significantly improved potencies to prevent cell death
O=c1c2nc(Br)n([C@@H]3O[C@@H]4CO[P@@](=O)(S)O[C@H]4[C@H]3O)c2nc2[nH]c(-c3ccc4ccccc4c3)cn12 (single isomer, unassigned) [Compound 24, 8-Bromo-(2-naphthyl-1,N^2-etheno)guanosine-3′,5′-cyclic monophosphorothioate, Rp-isomer] | 3.426 | –
O=c1c2nc(Br)n(C3OC4COP(O)(=S)OC4C3O)c2nc2[nH]c(-c3ccsc3)cn12 (centres unmarked) [Compound 23, 8-Bromo-(3-thiophen-yl-1, N^2-etheno)guanosine-3′, 5′-cyclic monophosphorothioate] | 2.746 | –
Nc1nc2c(nc(SCC(=O)NCCOCCOCCOCCOCCOCCOCCOCCOCCNC(=O)CSc3nc4c(=O)[nH]c(N)nc4n3[C@@H]3O[C@@H]4COP(O)(=S)O[C@H]4[C@H]3O)n2[C@@H]2O[C@@H]3COP(O)(=S)O[C@H]3[C@H]2O)c(=O)[nH]1 (some centres unmarked) [Compound 1, Guanosine-3′,5′-cyclic monophosphorothioate[Rp]-[8-thiomethylamido-(octaethoxy)-ethylamidomethylthio-8]-guanosine-3′,5′-cyclic monophosphorothioate[Rp]] | 2.039* | protective effect against cell death in primary rod-like cells [2]: significantly improved potencies to prevent cell death
O=C(CSc1nc2c(=O)n3cc(-c4ccccc4)[nH]c3nc2n1[C@@H]1O[C@@H]2COP(O)(=S)O[C@H]2[C@H]1O)Nc1ccccc1 (single isomer, unassigned) [Compound 33, β-Phenyl-1,N^2-etheno-8-phenylamidomethylthioguanosine-3′,5′-cyclic monophosphorothioate, Rp-isomer] | 3.411 | –
Nc1nc2c(nc(Sc3ccccc3N)n2[C@@H]2O[C@@H]3CO[P@@](=O)(S)O[C@H]3[C@H]2O)c(=O)[nH]1 (single isomer, unassigned) [Compound 30, 8-(2-Aminophenylthio)guanosine-3′,5′-cyclic monophosphorothioate, Rp-isomer] | 1.974 | –
O=c1c2nc(Br)n([C@@H]3O[C@@H]4CO[P@@](O)(=S)O[C@H]4[C@H]3O)c2nc2[nH]c(-c3ccccc3)cn12 [Rp-8-Br-PET-cGMPS] | – | photoreceptor cell death, ratio of treated/untreated specimens ([3]; PN5+2+4 paradigm, TUNEL stain, untreated = 1.0): about 0.78; reduction of photoreceptor cell death ([3]; versus untreated): more than 20%
O=c1c2nc(Br)n([C@@H]3O[C@@H]4CO[P@@](O)(=S)O[C@H]4[C@H]3O)c2nc2[nH]c(-c3ccccc3)cn12 [C, Rp-8-Br-PET-cGMPS, reference compound] | 2.831 | –
O=c1c2nc(Sc3ccc(O)cc3)n([C@@H]3O[C@@H]4COP(O)(=S)O[C@H]4[C@H]3O)c2nc2[nH]c(-c3ccccc3)cn12 (single isomer, unassigned) [Compound 34, 8-(4-Hydroxyphenylthio)-β-phenyl-1,N^2-ethenoguanosine-3′,5′-cyclic monophosphorothioate, Rp-isomer] | 3.078 | –
Nc1nc2c(ncn2[C@@H]2O[C@@H]3COP(O)(=S)O[C@H]3[C@H]2O)c(=O)[nH]1 (some centres unmarked) [A, Rp-cGMPS, reference compound] | 0.894 | –
Nc1nc2c(nc(Br)n2[C@@H]2O[C@@H]3COP(O)(=S)O[C@H]3[C@H]2O)c(=O)[nH]1 (some centres unmarked) [B, Rp-8-Br-cGMPS, reference compound] | 1.285 | –
Nc1nc2c(ncn2[C@@H]2O[C@@H]3COP(=O)(O)O[C@H]3[C@H]2O)c(=O)[nH]1 [cGMP, guanosine-3′,5′-cyclic monophosphate, reference compound] | 0.77 | –
